The values below come from PubChem BioAssay (NCI).

Molecules are shown by their SMILES.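 Interpolation was linear, between the two tested concentrations surrounding the appropriate level; five concentrations were tested over 48 hours in 96-well plates. The concentration for full growth arrest is given as TGI.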

One assay has as its system UACC-62 melanoma. Kind of assay: growth of human tumour cells (NCI), 48 h.
The compound `CNc1ncccc1Nc1cc(=O)n2c3cccnc3n(C)c2c1` came in with a TGI of over 100 µM.
`CC1(C)C2CCC1(C)C(N/C(Sc1ccccc1)=C(/C(Cl)=C(Cl)Cl)[N+](=O)[O-])C2` (centres undefined) displayed a TGI of 21.3 µM.
Same read-out and setting: to `O=C(NC1=C(Cl)C(=O)c2ccccc2C1=O)c1ccccc1` belongs 90.7 µM; to `C/C(=N\NS(=O)(=O)c1ccc(C)cc1)c1ccccn1`, over 100 µM; to `CN(/N=C/c1ccc(C(=O)O)cc1)C1=NCCCCN1`, over 100 µM.
Still for that read-out and setting: to `COc1ccc2nc(N/N=C/c3sccc3C)cc(C)c2c1` belongs 27.1 µM; to `C=C(C)C1CCC(C(=O)O)CC1` (centres undefined), over 100 µM; to `C=CCCON(C(=O)OC(C)(C)C)c1ccccc1`, over 100 µM.
Still for that read-out and setting: to `Nc1cc([N+](=O)[O-])ccc1C(=O)N1CCC[C@H]1CO` belongs over 100 µM.
As for `CC[C@@H](C)[C@H](NC(=O)[C@H](Cc1ccccc1)NCC(F)(F)F)C(=O)OC(C)(C)C`, the TGI is over 100 µM.
On the same count and under the same terms, under `CSc1c(C(=O)Nc2ccccc2)c(N)n(N)c(=O)c1C#N` stands over 100 µM; under `C=CCn1c(N)c(C#N)c(C#N)c1CCC`, over 100 µM; under `CCCCCCCC(CC(=O)NC(CO)C(=O)NC(CO)CC(C)C)OC(=O)CC(CCCCCCC)OC(=O)CC(CCCCCCC)OC1OC(C)C(O)C(OC2OC(C)C(OC(C)=O)C(O)C2O)C1O` (centres undefined), 19 µM.
The same measure, in the same setting: to `O=C1C2=Cc3ccccc3OC2(O)Oc2cc3ccccc3cc21` (centres undefined) belongs over 100 µM.

For a further assay, the system named is KM12 colon. Kind of assay: growth of human tumour cells (NCI), 48 h.
`Clc1ccc(CCN(CCc2ccc(Cl)c(Cl)c2)CCN2CCCC2)cc1Cl` registered a TGI of 3.04 µM.
Same read-out and setting: to `O=C(O)CO[C@@]12C#C/C=C\C#C[C@@H]3N(C(=O)Oc4ccccc4)c4ccccc4[C@]14O[C@@]34CCC2` belongs 60.3 µM; to `CC1C2CC(C(S(=O)(=O)O)C2=O)C1(C)C` (centres undefined), over 100 µM.
As to `COc1ccc(/C=C2\N=C(N3CCCCC3)NC2=O)cc1`, the TGI was over 100 µM.
Same read-out and setting: to `CC(C)NC(=O)OCc1c2c(n(C)c1COC(=O)NC(C)C)-c1cc(Cl)c(Cl)cc1CC2` belongs 81.7 µM; to `Cc1ccc(C2(O)CSC(=NC34CC5CC(CC(C5)C3)C4)N2C(P(=O)(O)O)P(=O)(O)O)cc1` (centres undefined), over 100 µM.
Same read-out and setting: to `CNc1ncccc1Nc1cc(=O)n2c3cccnc3n(C)c2c1` belongs over 100 µM; to `CC1(C)C2CCC1(C)C(N/C(Sc1ccccc1)=C(/C(Cl)=C(Cl)Cl)[N+](=O)[O-])C2` (centres undefined), 18.8 µM.
For the compound `O=C(NC1=C(Cl)C(=O)c2ccccc2C1=O)c1ccccc1`, the TGI was over 100 µM.
Consider `C/C(=N\NS(=O)(=O)c1ccc(C)cc1)c1ccccn1`, for which the TGI is over 100 µM.
On to `CN(/N=C/c1ccc(C(=O)O)cc1)C1=NCCCCN1`, for which the TGI was over 100 µM.
On the same count and under the same terms, to `COc1ccc2nc(N/N=C/c3sccc3C)cc(C)c2c1` belongs 38.3 µM.
The same measure, in the same setting: to `C=C(C)C1CCC(C(=O)O)CC1` (centres undefined) belongs over 100 µM; to `C=CCCON(C(=O)OC(C)(C)C)c1ccccc1`, over 100 µM; to `Nc1cc([N+](=O)[O-])ccc1C(=O)N1CCC[C@H]1CO`, over 100 µM.
On the same count and under the same terms, to `CC[C@@H](C)[C@H](NC(=O)[C@H](Cc1ccccc1)NCC(F)(F)F)C(=O)OC(C)(C)C` belongs over 100 µM; to `CSc1c(C(=O)Nc2ccccc2)c(N)n(N)c(=O)c1C#N`, over 100 µM.
Compound `C=CCn1c(N)c(C#N)c(C#N)c1CCC` yielded a TGI of over 100 µM.
In turn, `CCCCCCCC(CC(=O)NC(CO)C(=O)NC(CO)CC(C)C)OC(=O)CC(CCCCCCC)OC(=O)CC(CCCCCCC)OC1OC(C)C(O)C(OC2OC(C)C(OC(C)=O)C(O)C2O)C1O` (centres undefined) returned a TGI of 14.3 µM.
The same measure, in the same setting: to `O=C1C2=Cc3ccccc3OC2(O)Oc2cc3ccccc3cc21` (centres undefined) belongs over 100 µM.

The subject of a further assay is PC-3 prostate. The assay is described as follows: growth of human tumour cells (NCI), 48 h.
With `Clc1ccc(CCN(CCc2ccc(Cl)c(Cl)c2)CCN2CCCC2)cc1Cl`, the TGI was determined as 2.91 µM.
Same read-out and setting: under `O=C(O)CO[C@@]12C#C/C=C\C#C[C@@H]3N(C(=O)Oc4ccccc4)c4ccccc4[C@]14O[C@@]34CCC2` stands over 100 µM; under `CC1C2CC(C(S(=O)(=O)O)C2=O)C1(C)C` (centres undefined), over 100 µM; under `COc1ccc(/C=C2\N=C(N3CCCCC3)NC2=O)cc1`, over 100 µM.
On the same count and under the same terms, to `CC(C)NC(=O)OCc1c2c(n(C)c1COC(=O)NC(C)C)-c1cc(Cl)c(Cl)cc1CC2` belongs over 100 µM; to `Cc1ccc(C2(O)CSC(=NC34CC5CC(CC(C5)C3)C4)N2C(P(=O)(O)O)P(=O)(O)O)cc1` (centres undefined), over 100 µM.
On the same count and under the same terms, to `CNc1ncccc1Nc1cc(=O)n2c3cccnc3n(C)c2c1` belongs over 100 µM.
On to `CC1(C)C2CCC1(C)C(N/C(Sc1ccccc1)=C(/C(Cl)=C(Cl)Cl)[N+](=O)[O-])C2` (centres undefined), for which the TGI stood at 21.1 µM.
Still for that read-out and setting: to `O=C(NC1=C(Cl)C(=O)c2ccccc2C1=O)c1ccccc1` belongs over 100 µM; to `C/C(=N\NS(=O)(=O)c1ccc(C)cc1)c1ccccn1`, over 100 µM.
Still for that read-out and setting: to `CN(/N=C/c1ccc(C(=O)O)cc1)C1=NCCCCN1` belongs over 100 µM; to `COc1ccc2nc(N/N=C/c3sccc3C)cc(C)c2c1`, 38.7 µM.
In the case of `C=C(C)C1CCC(C(=O)O)CC1` (centres undefined), the TGI was over 100 µM.
Still for that read-out and setting: to `C=CCCON(C(=O)OC(C)(C)C)c1ccccc1` belongs over 100 µM.
The same measure, in the same setting: under `Nc1cc([N+](=O)[O-])ccc1C(=O)N1CCC[C@H]1CO` stands over 100 µM; under `CC[C@@H](C)[C@H](NC(=O)[C@H](Cc1ccccc1)NCC(F)(F)F)C(=O)OC(C)(C)C`, over 100 µM; under `CSc1c(C(=O)Nc2ccccc2)c(N)n(N)c(=O)c1C#N`, over 100 µM.
Still for that read-out and setting: to `C=CCn1c(N)c(C#N)c(C#N)c1CCC` belongs over 100 µM; to `CCCCCCCC(CC(=O)NC(CO)C(=O)NC(CO)CC(C)C)OC(=O)CC(CCCCCCC)OC(=O)CC(CCCCCCC)OC1OC(C)C(O)C(OC2OC(C)C(OC(C)=O)C(O)C2O)C1O` (centres undefined), 16.2 µM.
`O=C1C2=Cc3ccccc3OC2(O)Oc2cc3ccccc3cc21` (centres undefined): the TGI was over 100 µM.

Another assay concerns NCI-H460 lung. Kind of assay: growth of human tumour cells (NCI), 48 h.
In the case of `Clc1ccc(CCN(CCc2ccc(Cl)c(Cl)c2)CCN2CCCC2)cc1Cl`, the TGI is 3.34 µM.
Still for that read-out and setting: to `O=C(O)CO[C@@]12C#C/C=C\C#C[C@@H]3N(C(=O)Oc4ccccc4)c4ccccc4[C@]14O[C@@]34CCC2` belongs over 100 µM.
Still for that read-out and setting: to `CC1C2CC(C(S(=O)(=O)O)C2=O)C1(C)C` (centres undefined) belongs over 100 µM.
Same read-out and setting: to `CC(C)NC(=O)OCc1c2c(n(C)c1COC(=O)NC(C)C)-c1cc(Cl)c(Cl)cc1CC2` belongs over 100 µM.
For `Cc1ccc(C2(O)CSC(=NC34CC5CC(CC(C5)C3)C4)N2C(P(=O)(O)O)P(=O)(O)O)cc1` (centres undefined), the TGI was over 100 µM.
Still for that read-out and setting: under `CNc1ncccc1Nc1cc(=O)n2c3cccnc3n(C)c2c1` stands over 100 µM; under `CC1(C)C2CCC1(C)C(N/C(Sc1ccccc1)=C(/C(Cl)=C(Cl)Cl)[N+](=O)[O-])C2` (centres undefined), 32.7 µM.
Still for that read-out and setting: to `O=C(NC1=C(Cl)C(=O)c2ccccc2C1=O)c1ccccc1` belongs over 100 µM; to `C/C(=N\NS(=O)(=O)c1ccc(C)cc1)c1ccccn1`, over 100 µM.
Same read-out and setting: to `CN(/N=C/c1ccc(C(=O)O)cc1)C1=NCCCCN1` belongs over 100 µM; to `COc1ccc2nc(N/N=C/c3sccc3C)cc(C)c2c1`, 28.2 µM.
Compound `C=C(C)C1CCC(C(=O)O)CC1` (centres undefined) displayed a TGI of over 100 µM.
Still for that read-out and setting: under `C=CCCON(C(=O)OC(C)(C)C)c1ccccc1` stands over 100 µM; under `Nc1cc([N+](=O)[O-])ccc1C(=O)N1CCC[C@H]1CO`, over 100 µM.
On the same count and under the same terms, to `CC[C@@H](C)[C@H](NC(=O)[C@H](Cc1ccccc1)NCC(F)(F)F)C(=O)OC(C)(C)C` belongs over 100 µM.
